For experiment [1], the system named is sdLDL from plasma of healthy volunteers. The experiment in a line: Time-dependent sdLDL oxidation, MDA formation over 4 hours (Example 13). The class given is biochemical, human. The settings on record: each at 10 μM; 4 hours; 10 μM CuSO4. The procedure: sdLDL was isolated from the plasma of healthy volunteers by iodixanol density gradient centrifugation and adjusted to a final apolipoprotein concentration of 2 mg/mL. Sample aliquots (100 μg apolipoprotein) were incubated with EPA, DHA, or EPA+DHA (each at 10 μM) for 30 minutes at 37° C. and then treated with 10 μM CuSO4 to initiate lipid oxidation. sdLDL oxidation was measured spectrophotometrically as a function of malondialdehyde (MDA) formation at various intervals over 4 hours. Vitamin E was also tested as a positive control. Experiments were conducted in triplicate and reported as mean±SD.

Experiment [2] has as its system sdLDL isolated from human plasma. The experiment in a line: Copper-induced sdLDL oxidation 1 hour (Example 12). The format is biochemical. The settings on record: 10.0 μM; copper-induced oxidation 1 hour. As for the experimental part:
(§1) All samples, with the exception of non-oxidized sdLDL controls, were subjected to copper-induced oxidation for 1 hour. Human umbilical vein endothelial cells (HUVECs) were incubated with the various sdLDL samples, stimulated with calcium, and monitored for nitric oxide (NO) and peroxynitrite (ONOO^−) release using nanosensor technology.

For a further experiment, the system named is HUVECs. The experiment in a line: NO release from HUVECs incubated with treated, oxidized sdLDL samples (Example 12). The format is cell-based, human. The note with it: EPA-treated. The procedure: as §1

Take `CC/C=C\C/C=C\C/C=C\C/C=C\C/C=C\CCCC(=O)O` [EPA, cis-5,8,11,14,17-eicosapentaenoic acid]: in experiment [1], the MDA levels was found to be 0.8 ± 0.03 µM and the “reduction in sdLDL oxidation (MDA levels)” value turned out to be 92%. Besides, in experiment [2], the “reduced sdLDL oxidation compared to vehicle treatment alone” value is above 90%. Besides, in the experiment with HUVECs, the “NO release increased as compared to non-oxidized sdLDL treatment” value came to 23% and the “NO release increased as compared to oxidized LDL treatment” value is reported as 53%.

The values are drawn from patent US20200237700A1, “METHODS OF REDUCING OR PREVENTING OXIDATION OF SMALL DENSE LDL OR MEMBRANE POLYUNSATURATED FATTY ACIDS” (Amarin Pharmaceuticals Ireland Limited, priority 2015, published 2020).
